tested on: MOLM-13 cells; experiment: MOLM-13 cell viability assay (CellTiter-Glo); format: cell-based; conditions: Homo sapiens, MOLM-13, 72 h, 3 days, concentration of 1 μM, read-out: Antiproliferative Activity (inhibition, MOLM-13 cell viability)
Method: MOLM-13 cells were cultured in RPMI 1640 media supplemented with 10% fetal bovine serum, streptomycin, and penicillin. The cells were plated in white walled 96-well plates at 2,500 cells/well. The cells were incubated in DMSO (control) or an indicated compound for 3 days at 37° C. and 5% CO2. Following the incubation period, 100 μL of CELLTITER-GLO® (CTG) reagent was added to each well. Following a 10 minutes incubation with shaking, luminescence was measured using an ENVISION® Multimode plate reader.

Row | Structure (SMILES) | cytotoxicity at 1 µM
1 | N#Cc1ccc(C(=O)C(=O)NCc2ccc3c(c2)CN(C2CCC(=O)NC2=O)C3=O)cc1 (stereo not drawn) [Compound I-90, 2-(4-cyanophenyl)-N-((2-(2,6-dioxopiperidin-3-yl)-1-oxoisoindolin-5-yl)methyl)-2-oxoacetamide] | < 25%
2 | CC(C)(C)c1ccc(C(=O)C(=O)NCc2csc3c2CN(C2CCC(=O)NC2=O)C3=O)cc1 (stereo not drawn) [Compound I-39, 2-(4-(tert-butyl)phenyl)-N-((5-(2,6-dioxopiperidin-3-yl)-6-oxo-5,6-dihydro-4H-thieno[2,3-c]pyrrol-3-yl)methyl)-2-oxoacetamide] | > 80%
3 | CC(C)(CO)c1ccc(C(=O)C(=O)NCc2scc3c2CN(C2CCC(=O)NC2=O)C3=O)cc1 (stereo not drawn) [Compound I-43, N-((5-(2,6-dioxopiperidin-3-yl)-4-oxo-5,6-dihydro-4H-thieno[3,4-c]pyrrol-1-yl)methyl)-2-(4-(1-hydroxy-2-methylpropan-2-yl)phenyl)-2-oxoacetamide] | < 25%
4 | O=C(/C=C/c1ccc(C2(C(F)(F)F)CC2)cc1)NCc1ccc2c(c1)CN(C1CCC(=O)NC1=O)C2=O (stereo not drawn) [II-149, (E)-N-((2-(2,6-dioxopiperidin-3-yl)-1-oxoisoindolin-5-yl)methyl)-3-(4-(1-(trifluoromethyl)cyclopropyl)phenyl)acrylamide] | > 80%
5 | Cc1ccc(CC(=O)NCc2csc3c2CN(C2CCC(=O)NC2=O)C3=O)cc1Cl (stereo not drawn) [II-57, 2-(3-chloro-4-methylphenyl)-N-((5-(2,6-dioxopiperidin-3-yl)-6-oxo-5,6-dihydro-4H-thieno[2,3-c]pyrrol-3-yl)methyl)acetamide] | 50 to 80%
6 | Cc1ccc(N(C)C(=O)NCc2scc3c2CN(C2CCC(=O)NC2=O)C3=O)cc1Cl (stereo not drawn) [II-22, 1-(3-chloro-4-methylphenyl)-3-((5-(2,6-dioxopiperidin-3-yl)-4-oxo-5,6-dihydro-4H-thieno[3,4-c]pyrrol-1-yl)methyl)-1-methylurea] | 50 to 80%
7 | CC(C)(C)C1CCN(C(=O)C(=O)NCc2ccc3c(c2)CN(C2CCC(=O)NC2=O)C3=O)CC1 (stereo not drawn) [Compound I-62, 2-(4-(tert-butyl)piperidin-1-yl)-N-((2-(2,6-dioxopiperidin-3-yl)-1-oxoisoindolin-5-yl)methyl)-2-oxoacetamide] | > 80%
8 | CC(C)(C)C1CCC(C(=O)C(=O)NCc2cccc3c2CN(C2CCC(=O)NC2=O)C3=O)CC1 (stereo not drawn) [Compound I-67, 2-(4-(tert-butyl)cyclohexyl)-N-((2-(2,6-dioxopiperidin-3-yl)-1-oxoisoindolin-4-yl)methyl)-2-oxoacetamide] | 25 to 50%
9 | CC(C)(C)C1CCC(C(=O)C(=O)NCc2ccc3c(c2)CN(C2CCC(=O)NC2=O)C3=O)CC1 (stereo not drawn) [Compound I-68, 2-(4-(tert-butyl)cyclohexyl)-N-((2-(2,6-dioxopiperidin-3-yl)-1-oxoisoindolin-5-yl)methyl)-2-oxoacetamide] | < 25%
10 | CC(C)(C)c1ccc(C(=O)C(=O)NCc2cccc3c2C(=O)N(C2CCC(=O)NC2=O)C3=O)cc1 (stereo not drawn) [Compound I-48, 2-(4-(tert-butyl)phenyl)-N-((2-(2,6-dioxopiperidin-3-yl)-1,3-dioxoisoindolin-4-yl)methyl)-2-oxoacetamide] | < 25%
11 | CC(C)(C)c1ccc(NC(=O)NCc2scc3c2CN(C2CCC(=O)NC2=O)C3=O)cc1 (stereo not drawn) [II-148, 1-(4-(tert-butyl)phenyl)-3-((5-(2,6-dioxopiperidin-3-yl)-4-oxo-5,6-dihydro-4H-thieno[3,4-c]pyrrol-1-yl)methyl)urea] | > 80%
12 | CN(Cc1cccc2c1CN(C1CCC(=O)NC1=O)C2=O)C(=O)C(=O)c1ccc(C(C)(C)C)cc1 (stereo not drawn) [Compound I-47, 2-(4-(tert-butyl)phenyl)-N-((2-(2,6-dioxopiperidin-3-yl)-1-oxoisoindolin-4-yl)methyl)-N-methyl-2-oxoacetamide] | < 25%
13 | COc1ccc(C(=O)C(=O)NCc2ccc3c(c2)CN(C2CCC(=O)NC2=O)C3=O)cc1 (stereo not drawn) [Compound I-89, N-((2-(2,6-dioxopiperidin-3-yl)-1-oxoisoindolin-5-yl)methyl)-2-(4-methoxyphenyl)-2-oxoacetamide] | > 80%
14 | Cc1ccc(C(F)(F)C(=O)NCc2scc3c2CN([C@H]2CCCC(=O)NC2=O)C3=O)cc1Cl [II-29, (S)-2-(3-chloro-4-methylphenyl)-N-((5-(2,7-dioxoazepan-3-yl)-4-oxo-5,6-dihydro-4H-thieno[3,4-c]pyrrol-1-yl)methyl)-2,2-difluoroacetamide] | < 25%
15 | Cc1ccc(NC(=O)NCc2cc3c(s2)C(=O)N(C2CCC(=O)NC2=O)C3)cc1N1CCCC1 (stereo not drawn) [II-98, 1-((5-(2,6-dioxopiperidin-3-yl)-6-oxo-5,6-dihydro-4H-thieno[2,3-c]pyrrol-2-yl)methyl)-3-(4-methyl-3-(pyrrolidin-1-yl)phenyl)urea] | > 80%
16 | O=C1CCC(N2Cc3cc(CNC(=O)C(=O)c4ccc(C(F)(F)F)cc4)ccc3C2=O)C(=O)N1 (stereo not drawn) [Compound I-87, N-((2-(2,6-dioxopiperidin-3-yl)-1-oxoisoindolin-5-yl)methyl)-2-oxo-2-(4-trifluoromethylphenyl)acetamide] | 25 to 50%
17 | Cc1cc(NC(=O)NCc2cc3c(s2)C(=O)N(C2CCC(=O)NC2=O)C3)ccc1N1CCCC1 (stereo not drawn) [II-27, 1-((5-(2,6-dioxopiperidin-3-yl)-6-oxo-5,6-dihydro-4H-thieno[2,3-c]pyrrol-2-yl)methyl)-3-(3-methyl-4-(pyrrolidin-1-yl)phenyl)urea] | < 25%
18 | Cc1ccc(CNC(=O)NCCc2scc3c2CN(C2CCC(=O)NC2=O)C3=O)cc1Cl (stereo not drawn) [II-32, 1-(3-chloro-4-methylbenzyl)-3-(2-(5-(2,6-dioxopiperidin-3-yl)-4-oxo-5,6-dihydro-4H-thieno[3,4-c]pyrrol-1-yl)ethyl)urea] | > 80%
19 | CN(C)c1cccc(NC(=O)NCc2cc3c(s2)C(=O)N(C2CCC(=O)NC2=O)C3)c1 (stereo not drawn) [II-48, 1-(3-(dimethylamino)phenyl)-3-((5-(2,6-dioxopiperidin-3-yl)-6-oxo-5,6-dihydro-4H-thieno[2,3-c]pyrrol-2-yl)methyl)urea] | > 80%
20 | O=C(Cc1ccc(N2CCOCC2)cc1)NCc1scc2c1CN(C1CCC(=O)NC1=O)C2=O (stereo not drawn) [II-83, N-((5-(2,6-dioxopiperidin-3-yl)-4-oxo-5,6-dihydro-4H-thieno[3,4-c]pyrrol-1-yl)methyl)-2-(4-morpholinophenyl)acetamide] | < 25%
21 | Cc1ccc(C(=O)C(=O)NCc2ccc3c(c2)CN(C2CCC(=O)NC2=O)C3=O)cc1Cl (stereo not drawn) [Compound I-53, 2-(3-chloro-4-methylphenyl)-N-((2-(2,6-dioxopiperidin-3-yl)-1-oxoisoindolin-5-yl)methyl)-2-oxoacetamide] | > 80%
22 | CC(C)(C)c1ccc(CS(=O)(=O)NCc2scc3c2CN(C2CCC(=O)NC2=O)C3=O)cc1 (stereo not drawn) [II-128, 1-(4-(tert-butyl)phenyl)-N-((5-(2,6-dioxopiperidin-3-yl)-4-oxo-5,6-dihydro-4H-thieno[3,4-c]pyrrol-1-yl)methyl)methanesulfonamide] | > 80%
23 | CC(c1ccc(C(=O)C(=O)NCc2scc3c2CN(C2CCC(=O)NC2=O)C3=O)cc1)C(F)(F)F (stereo not drawn) [Compound I-36, N-((5-(2,6-dioxopiperidin-3-yl)-4-oxo-5,6-dihydro-4H-thieno[3,4-c]pyrrol-1-yl)methyl)-2-oxo-2-(4-(1,1,1-trifluoropropan-2-yl)phenyl)acetamide] | 25 to 50%
24 | O=C1CCC(N2Cc3c(csc3CNC(=O)C(=O)c3ccc(-c4ccccc4)cc3)C2=O)C(=O)N1 (stereo not drawn) [Compound I-21, 2-([1,1′-biphenyl]-4-yl)-N-((5-(2,6-dioxopiperidin-3-yl)-4-oxo-5,6-dihydro-4H-thieno[3,4-c]pyrrol-1-yl)methyl)-2-oxoacetamide] | 25 to 50%
25 | COc1ccc(C(=O)C(=O)NCc2scc3c2CN(C2CCC(=O)NC2=O)C3=O)cc1 (stereo not drawn) [Compound I-11, 2-(4-methoxyphenyl)-N-((5-(2,6-dioxopiperidin-3-yl)-4-oxo-5,6-dihydro-4H-thieno[3,4-c]pyrrol-1-yl)methyl)-2-oxoacetamide] | < 25%
26 | O=C1CCC(N2Cc3c(CNC(=O)C(=O)c4ccc(F)c(F)c4)cccc3C2=O)C(=O)N1 (stereo not drawn) [Compound I-73, 2-(3,4-difluorophenyl)-N-((2-(2,6-dioxopiperidin-3-yl)-1-oxoisoindolin-4-yl)methyl)-2-oxoacetamide] | < 25%
27 | Cc1cc(C(=O)C(=O)NCc2ccc3c(c2)CN(C2CCC(=O)NC2=O)C3=O)ccc1C(C)(C)C (stereo not drawn) [Compound I-55, 2-(3-methyl-4-(tert-butyl)phenyl)-N-((2-(2,6-dioxopiperidin-3-yl)-1-oxoisoindolin-5-yl)methyl)-2-oxoacetamide] | > 80%
28 | Cc1ccc(N(C)C(=O)N(C)Cc2scc3c2CN(C2CCC(=O)NC2=O)C3=O)cc1Cl (stereo not drawn) [II-20, 1-(3-chloro-4-methylphenyl)-3-((5-(2,6-dioxopiperidin-3-yl)-4-oxo-5,6-dihydro-4H-thieno[3,4-c]pyrrol-1-yl)methyl)-1,3-dimethylurea] | < 25%
29 | O=C1CCC(N2Cc3c(csc3CNC(=O)C(F)(F)c3ccc(C4(C(F)(F)F)CC4)cc3)C2=O)C(=O)N1 (stereo not drawn) [II-165, N-((5-(2,6-Dioxopiperidin-3-yl)-4-oxo-5,6-dihydro-4H-thieno[3,4-c]pyrrol-1-yl)methyl)-2,2-difluoro-2-(4-(1-(trifluoromethyl)cyclopropyl)phenyl)acetamide] | < 25%
30 | O=C1CCC(N2Cc3c(CCNC(=O)C(=O)c4ccc(C5(C(F)(F)F)CC5)cc4)cccc3C2=O)C(=O)N1 (stereo not drawn) [Compound I-65, N-(2-(2-(2,6-dioxopiperidin-3-yl)-1-oxoisoindolin-4-yl)ethyl)-2-oxo-2-(4-(1-(trifluoromethyl)cyclopropyl)phenyl)acetamide] | < 25%

— US11345712B2, “Protein-targeting compounds and pharmaceutical compositions thereof, and their therapeutic applications” (BioTheryX, Inc., priority 2019, dated 2022)
